Experimental data as given in patent publication US5607544A, “Process and agent for the oxidative bleaching of wood pulp and for deinking waste paper” (BK Ladenburg GmbH fur Chemische Erzeugnisse, priority 1994, dated 1997).

Tests used:
catalase [1] = assay: Catalase test: pressure increase after hydrogen peroxide addition to deinking process water of a paper factory; type: biochemical; settings: 0.1% hydrogen peroxide
Protocol: (§1) The catalase test depends upon the measurement of the increase of the pressure in an airtight-closed vessel after the introduction of 0.1% hydrogen peroxide. With increasing concentration of catalase in a sample, the pressure to be measured increases correspondingly. The pressure is given as an electric signal in relative units (mV). The pressure increase is measured after 10 minutes.

[2] = biological target: T1, enzyme catalase (No. C10 Sigma catalogue) (Bos taurus, UniProt P00432); assay: Action on the pure enzyme catalase, absorption decrease at 240 nm; type: biochemical
T1 construct: purchased Sigma C10
T1 sequence (P00432 2-527 limits assumed): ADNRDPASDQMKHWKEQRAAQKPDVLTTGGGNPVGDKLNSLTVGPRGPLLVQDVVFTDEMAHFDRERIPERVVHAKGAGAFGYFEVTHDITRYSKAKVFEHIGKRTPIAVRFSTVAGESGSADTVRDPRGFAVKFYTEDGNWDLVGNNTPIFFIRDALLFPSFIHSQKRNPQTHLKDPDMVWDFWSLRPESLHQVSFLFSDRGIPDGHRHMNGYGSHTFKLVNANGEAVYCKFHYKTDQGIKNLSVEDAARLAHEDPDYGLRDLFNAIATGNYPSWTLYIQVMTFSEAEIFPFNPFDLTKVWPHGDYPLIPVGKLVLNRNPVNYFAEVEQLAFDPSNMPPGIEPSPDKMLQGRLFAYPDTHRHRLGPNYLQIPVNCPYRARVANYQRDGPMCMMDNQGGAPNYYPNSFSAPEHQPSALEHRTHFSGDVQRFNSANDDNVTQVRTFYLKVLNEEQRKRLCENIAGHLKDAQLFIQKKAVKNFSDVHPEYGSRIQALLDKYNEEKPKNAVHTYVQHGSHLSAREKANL
Protocol: phosphate buffer 0.05M, pH 7.0 (K2 HPO4 : 8.7 g/l; KH2 PO4 : 6.8 g/l)
enzyme catalase (No. C10 Sigma catalogue)
substrate hydrogen peroxide (30%).
Dissolve catalase in 0.05M phosphate buffer.
Concentration: 50 sigma units per ml of buffer.
Dissolve 0.1 ml 30% hydrogen peroxide in 50 ml of 0.05M phosphate buffer (control) or in 50 ml phosphate buffer which contains the stabiliser (substrate). Measure the absorption at 240 nm. The result must lie between 0.550 and 0.520. Possibly dilute the solution or add more hydrogen peroxide thereto.
2.9 ml of solution B are placed in a quartz cuvette and subsequently mixed with 0.1 ml of solution A. The absorption at 240 nm should, at the beginning of the measurement, amount to approximately 0.450. The time needed for the decrease of the absorption at 240 nm from 0.450 to 0.400 is determined. This time corresponds to the conversion of 3.45 μmol hydrogen peroxide in 3 ml of sample volume.
(sigma units total)=3.45: time (minutes calculating back to active sigma units 1 sigma unit reacts 1.0 μmol hydrogen peroxide per minute (at pH 7.0; 25° C.).

[3] = Laboratory deinking experiment with process water 1 (whiteness, flotate, ash, residual peroxide); settings: 0 sample 15.7%
Protocol: Into 1 liter of water of 30° dH (tap water) are introduced:
(§2) Into the pulper (2800 r.p.m.) are introduced 50 g of atro waste paper and the chemical solution is subsequently introduced. The pulping time is 10 minutes. After ending of the brushing out time, the paper slurry is shaken out into a glass beaker, stirred up with a commercially available ultrasonic disperser and the pH value determined.
The pH value is 9.5±0.2. 100 ml are taken from the brushed out suspension and a sheet formed (degree of whiteness and brightness before the flotation).
(§3) The remaining fibre material is placed for 110 minutes in a waterbath with a temperature of 50° C. After the residence time, it is dispersed with a disperser for 1 minute at 10,000 r.p.m. The paper slurry is emptied into a flotation cell which is filled with water with a temperature of 50° C. There is thereby adjusted a material density of 0.8% (pH value 8.5). Air is introduced into the cell at a rate of 60 liters/hour and the speed of stirring is 1000 r.p.m. The flotation time is 10 minutes, foam being skimmed off manually. After the flotation is ended, acidification is carried out with sulphuric acid to pH 5 and sheets are formed.
The brightness and degree of whiteness are measured on the front and rear side and the average value determined.
R 457: reflection factor at 457 nm wavelength
Y/C: standard type of light C/1931
Process water 1 was used. The statements of percentage refer to the commercial product and the residual peroxide was determined by a titration method.

catalase [4] = assay: Pressure increase after hydrogen peroxide addition to process water 3 (rate of decomposition of peroxide); type: biochemical; settings: 400 ppm referred to process water volume, 0.1% hydrogen peroxide, after 10 minutes, ambient temperature, 0 sample 9.8
Protocol: as §1
As sample, there was used process water 3 and worked up analogously to Example 1. After the addition of 0.1% hydrogen peroxide (referred to 100% hydrogen peroxide), there was measured the pressure increase in relative pressure units (in mV) after 10 minutes. The measurement took place at ambient temperature.

[5] = Flotation experiment in tap water without waterglass (stability of hydrogen peroxide); settings: no waterglass; for residual peroxide: 0 sample 15%
Protocol: as §2, §3
In the case of this experiment, working was analogous to Example 3 but tap water was used instead of process water. […] At the same time, in the case of this experiment, the addition of waterglass as stabiliser is omitted.

[6] = Residual peroxide content by iodometric titration in deinking process water samples
Description: The measurement of the residual peroxide content took place by iodometric titration.
The initial peroxide content corresponds to 100% (=0.1% hydrogen peroxide (100%)).

[7] = 400 ppm active substance, pressure increase after 10 minutes, comparison sample without additive 9.8

Question: For `OC[P+](CO)(CO)CO` [THPS, tetrakishydroxymethylphosphonium sulphate], which “pressure in relative units” value (catalase [1]; [7]) is on record?
Answer: > 9.0 mV

Question: With `CNC(=S)S` [MDTCMA, monomethylammonium monomethyl dithiocarbamate] as the molecule, how does the “pressure in relative units” value (catalase [1]; [7]) read?
Answer: > 9.0 mV

Question: With `OCl` [Sodium hypochlorite] as the molecule, how does the “action on the pure enzyme catalase (in words)” value ([2]; solution B (hydrogen peroxide in phosphate buffer)) read?
Answer: reacts in solution B with hydrogen peroxide with decomposition before catalase can be added

Question: Which “pressure in relative units” value (catalase [1]; [7]) does the source give for `N#CC(Br)(Br)C(N)=O` [DBNPA, 2,2-dibromo-3-nitrilopropionamide] here?
Answer: > 9.0 mV

Question: Which inhibition at 0.5 ppm ([2]; 0.5 ppm, pH 7.0) does the source give for `O=CCCCC=O` [glutaraldehyde] here?
Answer: 6%

Question: What about the inhibition at 2.5 ppm ([2]; 2.5 ppm, pH 7.0) of the same molecule?
Answer: 9%

Question: And the inhibition at 5 ppm ([2]; 5 ppm, pH 7.0)?
Answer: 11%

Question: What does the source list for `O=C(C(Cl)=NO)c1ccc(O)cc1` [paraclox, 2-oxo-2-(4-hydroxyphenyl)-acethydroximic acid chloride]?
Answer: pressure in relative units (catalase [1]; 10 ppm active substance, after 10 minutes): 4.2 mV; pressure in relative units (catalase [1]; 100 ppm active substance, after 10 minutes): 0.5 mV; pressure in relative units (catalase [1]; [7]): 0.2 mV; residual peroxide ([3]; paraclox 0.02%): 21.4%; residual peroxide ([3]; paraclox 0.04%): 28.5%; residual peroxide ([3]; paraclox 0.08%): 49.7%; pressure increase in relative pressure units (catalase [4]): 0.2 mV; stabilising action on the peroxide (in words) [5]: very good stabilising action on the peroxide; residual peroxide ([5]; paraclox 0.02%): 34.0%; residual peroxide ([5]; paraclox 0.04%): 41.0%; residual peroxide ([5]; paraclox 0.08%): 52.4%; inhibition at 0.2 ppm ([2]; 0.2 ppm, pH 7.0): 0%; inhibition at 1 ppm ([2]; 1 ppm, pH 7.0): 16%; inhibition at 2 ppm ([2]; 2 ppm, pH 7.0): 63%; residual peroxide content ([6]; Process water 1 (clear filtrate), 10 ppm, 0 min.): 100%; residual peroxide content ([6]; Process water 1 (clear filtrate), 10 ppm, 30 min.): 55.4%; residual peroxide content ([6]; Process water 1 (clear filtrate), 10 ppm, 60 min.): 43.1%; residual peroxide content ([6]; Process water 1 (clear filtrate), 10 ppm, 90 min.): 33.8%; residual peroxide content ([6]; Process water 1 (clear filtrate), 10 ppm, 120 min.): 26.9%; residual peroxide content ([6]; Process water 1 (clear filtrate), 100 ppm, 0 min.): 100%; residual peroxide content ([6]; Process water 1 (clear filtrate), 100 ppm, 30 min.): 95.4%; residual peroxide content ([6]; Process water 1 (clear filtrate), 100 ppm, 60 min.): 87.7%; residual peroxide content ([6]; Process water 1 (clear filtrate), 100 ppm, 90 min.): 87.7%; residual peroxide content ([6]; Process water 1 (clear filtrate), 100 ppm, 120 min.): 86.1%; residual peroxide content ([6]; Process water 2 (drum 1), 2 ppm, 0 min.): 100%; residual peroxide content ([6]; Process water 2 (drum 1), 2 ppm, 30 min.): 3.6%; residual peroxide content ([6]; Process water 2 (drum 1), 2 ppm, 60 min.): 0%; residual peroxide content ([6]; Process water 2 (drum 1), 2 ppm, 90 min.): 0%; residual peroxide content ([6]; Process water 2 (drum 1), 2 ppm, 120 min.): 0%; residual peroxide content ([6]; Process water 2 (drum 1), 20 ppm, 0 min.): 100%; residual peroxide content ([6]; Process water 2 (drum 1), 20 ppm, 30 min.): 62.1%; residual peroxide content ([6]; Process water 2 (drum 1), 20 ppm, 60 min.): 56.8%; residual peroxide content ([6]; Process water 2 (drum 1), 20 ppm, 90 min.): 50.8%; residual peroxide content ([6]; Process water 2 (drum 1), 20 ppm, 120 min.): 47%

Question: Which “pressure in relative units” value (catalase [1]; [7]) does the source give for `N#CSCSC#N` [MBT, methylene bisthiocyanate] here?
Answer: 6.2 mV

Question: With `CNC(=S)S` [metamsodium, sodium monomethyldithiocarbamate] as the molecule, how does the “pressure in relative units” value (catalase [1]; [7]) read?
Answer: 5.0 mV
